Laboratory results reported in patent publication US8552013B2, “Heterocyclic compounds based on N6-substituted adenine, methods of their preparation, their use for preparation of drugs, cosmetic preparations and growth regulators, pharmaceutical preparations, cosmetic preparations and growth regulators containing these compounds” (USTAV Experimentalni Botaniky Akademie Ved Ceske Republiky, priority 2001, dated 2013).

Columns and labels:
human skin fibroblasts [1] = test: Cell attachment of human skin fibroblasts; assay type: cell-based; settings: for attachment / Percent of cells attached, effect in words: ortho 40 to 400 μM, meta 40 to 200 μM; for Percent of cells attached, effect in words: para 40 μM to 1 mM; for Overall cell attachment improved (summary): para at 40, 80, 100, 160, 250 and 500 μM
Experimental: All experiments were performed on early and mid passage cultures (about 20 to 40% lifespan completed) of normal human adult skin fibroblast line; designated ASF-2 & Senetek cell line (about 10-90% lifespan completed); designated as SF20. In order to check the effects of test compounds on senescent cells, late passage cells with more than 95% lifespan completed were used. ASF-2 and SF20 cell lines were established from a mammary skin biopsy obtained from a young, non-smoking and healthy […] at the time of breast reduction operation. Normal culture conditions of medium (DMEM) containing antibiotics, 10% foetal calf serum, and incubation at 37° C. with 95% humidity were used. The effects of the test chemicals were determined in the following conditions: […]

[2] = tested on: lysosomes of fibroblast cells; test: Lysosomal activity, neutral red uptake; assay type: cell-based, human; settings: pre-treated fibroblasts
Experimental: Neutral Red is preferentially taken up into the lysosomes of the cell. Fibroblast cells are maintained in culture and exposed to test compounds over a range of concentrations. The cultures are visually examined after 72 hours, and the number of viable cells and/or the total cell protein content determined, after 72 hours exposure, by the Neutral Red Uptake method. Advantage of Neutral Red assay is that it detects only viable cells. Any chemical having a localized effect upon the lysosomes will, therefore, result in an artificially low (or possibly high) reflection of cell viability and cell number. This factor does, however, make the system useful to detect those compounds which selectively affect the lysosomes, especially when it is used in conjunction with other tests capable of determining cell number.
The NR assay has been applied to evaluation and ranking the cytotoxicity of a spectrum of compounds. Individual wells of a 96-well tissue culture microtiter plate were inoculated with 0.2 ml of the appropriate media containing cells (usually 3×10^3 cells). After 1 to 2 days of incubation, the media were removed and replaced with unamended (control) medium or with medium amended with varied concentrations of the compound to be tested. After 3 days of exposure to the compound, media were removed and replaced with media containing 0.001% NR. The assay plate was then returned to the incubator for another 3 h to allow for uptake of the supravital dye into the lysosomes of viable cells. Thereafter, the media were removed and the cells were rapidly washed with 0.5% formaldehyde-1% CaCl2 followed by 0.2 ml of a solution of 1% acetic acid-50% ethanol to extract the dye from the cells. After 10 min at room temperature and a brief but rapid agitation on a microtiter plate shaker, the plates were transferred to a microplate spectrophotometer equipped with a 540-nm filter to measure the absorbance of the extracted dye.
The toxicities of the various compounds were compared with those of the control cultures by computing the data obtained.

[3] = tested on: senescent human skin fibroblasts; test: Morphology of senescent cells; assay type: cell-based; settings: for appearance of senescent cells on longer treatment: 14 days, ortho and meta 80 μM and above; for appearance of senescent cells: after 7 days of treatment (para: 7 days and 14 days; meta: low concentrations)
Experimental: All experiments were performed on early and mid passage cultures (about 20 to 40% lifespan completed) of normal human adult skin fibroblast line; designated ASF-2 & Senetek cell line (about 10-90% lifespan completed); designated as SF20. In order to check the effects of test compounds on senescent cells, late passage cells with more than 95% lifespan completed were used. ASF-2 and SF20 cell lines were established from a mammary skin biopsy obtained from a young, non-smoking and healthy […] at the time of breast reduction operation. Normal culture conditions of medium (DMEM) containing antibiotics, 10% foetal calf serum, and incubation at 37° C. with 95% humidity were used. The effects of the test chemicals were determined in the following conditions:
Senescent human skin fibroblasts were treated with various doses of para-topolin to see if this treatment could reverse age-related alterations in their morphology. […] The cells progressively became heterogeneous with large and flattened appearance.

human skin fibroblasts [4] = test: beta-galactosidase staining of treated skin fibroblasts; assay type: cell-based; settings: short-term growth treatment

Compound	reduction in cell attachment (human skin fibroblasts [1]; 400 μM, 6 hours) [%]	attachment (human skin fibroblasts [1]; 6 hours)	Percent of cells attached, effect in words (human skin fibroblasts [1]; 6 hours)	Overall cell attachment improved (summary) (human skin fibroblasts [1])	Cleaning up of cytoplasmic debris (macro-molecular turn-over rate), summary [2]	effects on morphology of senescent cells ([3]; 200 μM and above, within 7 days)	appearance of senescent cells on longer treatment [3]	appearance of senescent cells [3]	number of prematurely senescent cells, beta-galactosidase staining (human skin fibroblasts [4])
Oc1cccc(CNc2ncnc3nc[nH]c23)c1 [meta-topolin, 6-(3-hydroxybenzylamino)purine]	20	about 80%	not affected to any significant extent	No improvements	No such effective removal was observed	some negative effects	unhealthy and sick	no significant differences	–
Oc1ccccc1CNc1ncnc2nc[nH]c12 [ortho-topolin, 6-(2-hydroxybenzylamino)purine]	–	80 to 90%	not affected to any significant extent	No improvements	No such effective removal was observed	–	unhealthy and sick	no significant differences	did not show any increase
